These are literature values, as cited in PubChem BioAssay AID1259409 (Chemical Carcinogenesis Research Information System (CCRIS), 2018).

The structures appear in SMILES notation.

For the data set, the system named is rodent chemically induced tumor inhibition, incidence and multiplicity. Description: CCRIS tumor inhibitor studies.

For the molecule `Cc1cc(C(C)(C)C)c(O)c(C(C)(C)C)c1`, the “tumour outcome (control, treated, inhibition, significance)” value by setting is: (Carcinogen: 7,12-DIMETHYLBENZ[A]ANTHRACENE, 57-97-6, Dose [Inhibitor]: 200 MG ML 1 ML IN OLIVE OIL ONCE (STUDY DURATION: 18 WK), Route [Inhibitor]: GAVAGE, Species: RAT, Strain/Sex: SPRAGUE-DAWLEY/FEMALE, Target Tissue: Type of Lesion: MAMMARY GLAND: TUMOR, Dose [Carcinogen]: 12 MG IN 1 ML OLIVE OIL ADMINISTERED 1 HR AFTER INHIBITOR, Promoter: NONE USED) 27/34 (79%), 5/18 (28%), 64%, p<0.01; (Carcinogen: 7,12-DIMETHYLBENZ[A]ANTHRACENE, 57-97-6, Dose [Inhibitor]: 1000 UG APPLIED 6 HR BEFORE, 5 MIN BEFORE, AND 6 HR AFTER DMBA (STUDY DURATION: 28 WK), Route [Inhibitor]: DERMAL, Species: MOUSE, Strain/Sex: CD-1/FEMALE, Target Tissue: Type of Lesion: SKIN: PAPILLOMA, Dose [Carcinogen]: 2.56 UG APPLIED ONCE 5 MIN AFTER INHIBITOR, Promoter: 12-O-TETRADECANOYLPHORBOL-13-ACETATE, 16561-29-8) “(82%, 35%, 57%, not calculated”; (Carcinogen: 7,12-DIMETHYLBENZ[A]ANTHRACENE, 57-97-6, Dose [Inhibitor]: 1000 UG APPLIED ONCE 5 MIN BEFORE DMBA (STUDY DURATION 28 WK), Route [Inhibitor]: DERMAL, Species: MOUSE, Strain/Sex: CD-1/FEMALE, Target Tissue: Type of Lesion: SKIN: PAPILLOMA, Dose [Carcinogen]: 2.56 UG APPLIED ONCE 5 MIN AFTER INHIBITOR, Promoter: 12-O-TETRADECANOYLPHORBOL-13-ACETATE, 16561-29-8) 82%, 57%, 30%, not calculated; (Carcinogen: 7,12-DIMETHYLBENZ[A]ANTHRACENE, 57-97-6, Dose [Inhibitor]: 2500 MG/KG IN DIET STARTING 2 WK BEFORE UNTIL 1 WK AFTER CARCINOGEN ADMINISTRATION (STUDY DURATION: 32 WK), Route [Inhibitor]: ORAL, Species: RAT, Strain/Sex: SPRAGUE-DAWLEY/FEMALE, Target Tissue: Type of Lesion: MAMMARY GLAND: TUMOR, Dose [Carcinogen]: 8 MG IN 1 ML SESAME OIL ADMINISTERED ONCE, Promoter: NONE USED) 88%, 68%, 23%, not significant; (Carcinogen: BENZO[A]PYRENE, 50-32-8, Dose [Inhibitor]: 5 MG/G DIET IN SESAME OIL (4%) 3/WK FOR 28 D SIMULTANEOUSLY WITH CARCINOGEN (STUDY DURATION: 21 WK), Route [Inhibitor]: ORAL, Species: MOUSE, Strain/Sex: A/HEJ/FEMALE, Target Tissue: Type of Lesion: FORESTOMACH: TUMOR, Dose [Carcinogen]: 1 MG/G DIET IN 4% SESAME OIL IN DIET 3/WK FOR 28 D, Promoter: NONE USED) 12/12 (100%), 2/9 (22%), 78%, p<0.001; (Carcinogen: BENZO[A]PYRENE, 50-32-8, Dose [Inhibitor]: 10 MG/G DIET 3/WK FOR 28 D SIMULTANEOUSLY WITH CARCINOGEN (STUDY DURATION: 28 WK), Route [Inhibitor]: ORAL, Species: MOUSE, Strain/Sex: ICR/FEMALE, Target Tissue: Type of Lesion: FORESTOMACH: TUMOR, Dose [Carcinogen]: 0.3 MG/G DIET 3/WK FOR 28 D, Promoter: NONE USED) 13/19 (68%), 10/20 (50%), 26%, not significant. In addition, the “tumour outcome (control, treated, inhibition, significance)” value is, setting by setting: (Carcinogen: DIETHYLNITROSAMINE, 55-18-5, Dose [Inhibitor]: 0, 50 MG/KG IN CORN OIL FOR DURATION OF STUDY BEGINNING 7 D PRIOR TO FIRST CARCINOGEN DOSE (STUDY DURATION: 6 MO), Route [Inhibitor]: GAVAGE, Species: RAT, Strain/Sex: BD6/FEMALE, Target Tissue: Type of Lesion: ESOPHAGUS: TUMOR, Dose [Carcinogen]: 80 MG/KG BW 1/WK FOR 6 WK, Promoter: NONE USED) 14%, 0%, 100%, not significant; (Carcinogen: DIETHYLNITROSAMINE, 55-18-5, Dose [Inhibitor]: 0, 50 MG/KG IN CORN OIL FOR DURATION OF STUDY BEGINNING 7 D PRIOR TO FIRST CARCINOGEN DOSE (STUDY DURATION: 6 MO), Route [Inhibitor]: GAVAGE, Species: RAT, Strain/Sex: BD6/FEMALE, Target Tissue: Type of Lesion: ESOPHAGUS: TUMOR, Dose [Carcinogen]: 80 MG/KG BW 1/WK FOR 8 WK, Promoter: NONE USED) 20%, 4%, 80%, not significant; (Carcinogen: DIETHYLNITROSAMINE, 55-18-5, Dose [Inhibitor]: 0, 50 MG/KG IN CORN OIL FOR DURATION OF STUDY BEGINNING 7 D PRIOR TO FIRST CARCINOGEN DOSE (STUDY DURATION: 6 MO), Route [Inhibitor]: GAVAGE, Species: RAT, Strain/Sex: BD6/FEMALE, Target Tissue: Type of Lesion: LIVER: TUMOR, Dose [Carcinogen]: 80 MG/KG BW 1/WK FOR 6 WK, Promoter: NONE USED) 52%, 23%, 56%, not significant; (Carcinogen: DIETHYLNITROSAMINE, 55-18-5, Dose [Inhibitor]: 0, 50 MG/KG IN CORN OIL FOR DURATION OF STUDY BEGINNING 7 D PRIOR TO FIRST CARCINOGEN DOSE (STUDY DURATION: 6 MO), Route [Inhibitor]: GAVAGE, Species: RAT, Strain/Sex: BD6/FEMALE, Target Tissue: Type of Lesion: LIVER: TUMOR, Dose [Carcinogen]: 80 MG/KG BW 1/WK FOR 8 WK, Promoter: NONE USED) 83%, 72%, 13%, not significant; (Carcinogen: HYDRAZINE SULFATE, 10034-93-2, Dose [Inhibitor]: 5000 PPM IN DIET STARTING 1 WK PRIOR TO ADMINISTRATION OF CARCINOGEN UNTIL END OF EXPERIMENT (STUDY DURATION: APPROXIMAT, Route [Inhibitor]: ORAL, Species: MOUSE, Strain/Sex: SWISS/MALE, FEMALE, Target Tissue: Type of Lesion: LIVER AND LUNG: COMBINED TUMORS, Dose [Carcinogen]: 1.1 MG/D 5 D/WK UNTIL 12 MO OF AGE, Promoter: NONE USED) 24/29 (83%), 19/28 (68%), 18%, not significant; (Carcinogen: ISONIAZID, 54-85-3, Dose [Inhibitor]: 5000 PPM IN DIET STARTING 1 WK PRIOR TO ADMINISTRATION OF CARCINOGEN UNTIL END OF EXPERIMENT (STUDY DURATION: APPROXIMAT, Route [Inhibitor]: ORAL, Species: MOUSE, Strain/Sex: SWISS/MALE, FEMALE, Target Tissue: Type of Lesion: LIVER AND LUNG: COMBINED TUMORS, Dose [Carcinogen]: 1.1 MG/D 5 D/WK UNTIL 25 M OF AGE, Promoter: NONE USED) 16/29 (55%), 4/20 (20%), 64%, p<0.05. The “tumour outcome (control, treated, inhibition, significance)” value is on record as 16/29 (55%), 5/20 (25%), 54%, p<0.05 (Carcinogen: ISONIAZID, 54-85-3, Dose [Inhibitor]: 5000 PPM IN DIET STARTING 1 WK PRIOR TO ADMINISTRATION OF CARCINOGEN UNTIL END OF EXPERIMENT (STUDY DURATION: APPROXIMAT, Route [Inhibitor]: ORAL, Species: MOUSE, Strain/Sex: SWISS/MALE, FEMALE, Target Tissue: Type of Lesion: LIVER AND LUNG: COMBINED TUMORS, Dose [Carcinogen]: 1.1 MG/D 5 D/WK UNTIL 25 MO OF AGE, Promoter: NONE USED); 5%, 0%, 100%, not calculated (Carcinogen: N-BIS(2-HYDROXYPROPYL)NITROSAMINE, 53609-64-6, Dose [Inhibitor]: 0, 1% IN DIET FOR 30 WK BEGINNING POST CARCINOGEN TREATMENT (STUDY DURATION: 32 WK), Route [Inhibitor]: ORAL, Species: RAT, Strain/Sex: F344/MALE, Target Tissue: Type of Lesion: BLADDER: ADENOMA, Dose [Carcinogen]: 0.1% IN DRINKING WATER FOR 2 WK, Promoter: NONE USED); 10%, 30%, -200%, not calculated (Carcinogen: N-BIS(2-HYDROXYPROPYL)NITROSAMINE, 53609-64-6, Dose [Inhibitor]: 0, 1% IN DIET FOR 30 WK BEGINNING POST CARCINOGEN TREATMENT (STUDY DURATION: 32 WK), Route [Inhibitor]: ORAL, Species: RAT, Strain/Sex: F344/MALE, Target Tissue: Type of Lesion: KIDNEY: TUMOR, Dose [Carcinogen]: 0.1% IN DRINKING WATER FOR 2 WK, Promoter: NONE USED).
